Data reported in patent US20140342379A1, “Means and Methods for Assessing Gonadal Toxicity” (BASF SE, priority 2011, published 2014).
Marks after values point to notes of the source that are not given here.

Tested on: male rats
Test: 28-day repeated dose study, plasma metabolite profiling (GC-MS, LC-MS), male rats
Type: in vivo, rat
Text: Drinking water was also offered ad libitum.

Compound: CCCCOCCO [2-Butoxyethanol]
- 18-Hydroxy-11-deoxycorticosterone, plasma, treatment ratio versus control (day 7): 0.18*
- Alanine, plasma, treatment ratio versus control (day 7): 0.83*
- Arachidonic acid (C20:cis[5,8,11,14]4), plasma, treatment ratio versus control (day 7): 0.86*
- Coenzyme Q9, plasma, treatment ratio versus control (day 7): 0.83*
- Creatinine, plasma, treatment ratio versus control (day 7): 1.03
- DAG (C18:1, C18:2), plasma, treatment ratio versus control (day 7): 0.99
- Fructose-6-phosphate, plasma, treatment ratio versus control (day 7): 0.84
- Galactose, lipid fraction, plasma, treatment ratio versus control (day 7): 0.8*
- Glucosamine, plasma, treatment ratio versus control (day 7): 1
- Glucose, plasma, treatment ratio versus control (day 7): 0.81*
- Glycerol, polar fraction, plasma, treatment ratio versus control (day 7): 0.86*
- Heneicosanoic acid (C21:0), plasma, treatment ratio versus control (day 7): 0.88
- Lactate, plasma, treatment ratio versus control (day 7): 0.93*
- Linolenic acid (C18:cis[9,12,15]3), plasma, treatment ratio versus control (day 7): 1.01
- Lysine, plasma, treatment ratio versus control (day 7): 0.81*
- Malate, plasma, treatment ratio versus control (day 7): 0.81*
- Oleic acid (C18:cis[9]1), plasma, treatment ratio versus control (day 7): 0.98
- Palmitoleic acid (C16:cis[9]1), plasma, treatment ratio versus control (day 7): 0.94
- Phenylalanine, plasma, treatment ratio versus control (day 7): 0.87*
- Phosphate (inorganic and organic phosphates), plasma, treatment ratio versus control (day 7): 1.05
- Pyruvate, plasma, treatment ratio versus control (day 7): 1.1
- Spermidine, plasma, treatment ratio versus control (day 7): 0.67*
- TAG (C16:0,C16:1), plasma, treatment ratio versus control (day 7): 1.16
- Uracil, plasma, treatment ratio versus control (day 7): 0.77*
- myo-Inositol, plasma, treatment ratio versus control (day 7): 0.88
- trans-4-Hydroxyproline, plasma, treatment ratio versus control (day 7): 1.03
- 18-Hydroxy-11-deoxycorticosterone, plasma, treatment ratio versus control (day 14): 0.44*
- Alanine, plasma, treatment ratio versus control (day 14): 0.93
- Arachidonic acid (C20:cis[5,8,11,14]4), plasma, treatment ratio versus control (day 14): 0.84
- Coenzyme Q9, plasma, treatment ratio versus control (day 14): 0.5*
- Creatinine, plasma, treatment ratio versus control (day 14): 1.34*
- DAG (C18:1, C18:2), plasma, treatment ratio versus control (day 14): 0.69*
- Fructose-6-phosphate, plasma, treatment ratio versus control (day 14): 1.11
- Galactose, lipid fraction, plasma, treatment ratio versus control (day 14): 0.86
- Glucosamine, plasma, treatment ratio versus control (day 14): 0.88
- Glucose, plasma, treatment ratio versus control (day 14): 0.73*
- Glycerol, polar fraction, plasma, treatment ratio versus control (day 14): 0.95
- Heneicosanoic acid (C21:0), plasma, treatment ratio versus control (day 14): 0.86*
- Lactate, plasma, treatment ratio versus control (day 14): 0.86
- Linolenic acid (C18:cis[9,12,15]3), plasma, treatment ratio versus control (day 14): 0.9*
- Lysine, plasma, treatment ratio versus control (day 14): 1
- Malate, plasma, treatment ratio versus control (day 14): 0.79*
- Oleic acid (C18:cis[9]1), plasma, treatment ratio versus control (day 14): 0.8*
- Palmitoleic acid (C16:cis[9]1), plasma, treatment ratio versus control (day 14): 0.77
- Phenylalanine, plasma, treatment ratio versus control (day 14): 0.94*
- Phosphate (inorganic and organic phosphates), plasma, treatment ratio versus control (day 14): 1.03
- Pyruvate, plasma, treatment ratio versus control (day 14): 0.78
- Spermidine, plasma, treatment ratio versus control (day 14): 0.68*
- TAG (C16:0,C16:1), plasma, treatment ratio versus control (day 14): 0.66*
- Uracil, plasma, treatment ratio versus control (day 14): 0.9
- myo-Inositol, plasma, treatment ratio versus control (day 14): 0.82*
- trans-4-Hydroxyproline, plasma, treatment ratio versus control (day 14): 1.21*
- 18-Hydroxy-11-deoxycorticosterone, plasma, treatment ratio versus control (day 28): 0.68*
- Alanine, plasma, treatment ratio versus control (day 28): 0.91*
- Arachidonic acid (C20:cis[5,8,11,14]4), plasma, treatment ratio versus control (day 28): 0.84
- Coenzyme Q9, plasma, treatment ratio versus control (day 28): 0.83
- Creatinine, plasma, treatment ratio versus control (day 28): 1.19*
- DAG (C18:1, C18:2), plasma, treatment ratio versus control (day 28): 0.78
- Fructose-6-phosphate, plasma, treatment ratio versus control (day 28): 0.61*
- Galactose, lipid fraction, plasma, treatment ratio versus control (day 28): 0.71*
- Glucosamine, plasma, treatment ratio versus control (day 28): 1.3*
- Glucose, plasma, treatment ratio versus control (day 28): 0.93*
- Glycerol, polar fraction, plasma, treatment ratio versus control (day 28): 0.87*
- Heneicosanoic acid (C21:0), plasma, treatment ratio versus control (day 28): 0.96
- Lactate, plasma, treatment ratio versus control (day 28): 0.72*
- Linolenic acid (C18:cis[9,12,15]3), plasma, treatment ratio versus control (day 28): 0.99
- Lysine, plasma, treatment ratio versus control (day 28): 0.86*
- Malate, plasma, treatment ratio versus control (day 28): 0.7*
- Oleic acid (C18:cis[9]1), plasma, treatment ratio versus control (day 28): 0.91
- Palmitoleic acid (C16:cis[9]1), plasma, treatment ratio versus control (day 28): 0.77
- Phenylalanine, plasma, treatment ratio versus control (day 28): 0.95*
- Phosphate (inorganic and organic phosphates), plasma, treatment ratio versus control (day 28): 1.02*
- Pyruvate, plasma, treatment ratio versus control (day 28): 0.72*
- Spermidine, plasma, treatment ratio versus control (day 28): 0.77*
- TAG (C16:0,C16:1), plasma, treatment ratio versus control (day 28): 1.06
- Uracil, plasma, treatment ratio versus control (day 28): 0.71*
- myo-Inositol, plasma, treatment ratio versus control (day 28): 0.93*
- trans-4-Hydroxyproline, plasma, treatment ratio versus control (day 28): 1.15
